From patent publication US7320981B2, “Variolin derivatives as anti-cancer agents” (Pharma Mar, S.A., priority 2000, dated 2008) come the findings set out here.

Read-outs that look alike come from different tables or passages of the source. Where only a bound is given, the exact number is not on record here.

The test system of series [1] is A-549. Put plainly: SRB cell growth/viability assay, A-549. The text has this:
(§1) A colorimetric type of assay, using sulforhodamine B (SRB) reaction has been adapted for a quantitative measurement of cell growth and viability: see Skehan, P. A. et al. J. Natl. Cancer Inst., 1990, 82, 1107-1112. This form of the assay employs 96 well cell culture microplates of 9 mm diameter (Faircloth, G. T.; Stewart, D. and Clement, J. J., Journal of Tissue and Culture Methods, 1983, 11, 201-205; Mosmann, T. Journal of Immunological Methods, 1983, 65, 55-63.).
(§2) Most of the cell lines are obtained from American Type Culture Collection (ATCC) derived from different human cancer types. Cells are maintained in RPMI 1640 10% FBS, supplemented with 0.1 g/l penicillin and 0.1 g/l streptomycin sulfate and then incubated at 37° C., 5% CO2 and 98% humidity. For the experiments, cells were harvested from subconfluent cultures using trypsin and resuspended in fresh medium before plating.
(§3) Cells are seeded in 96 well microtiter plates, at 5×10^3 cells per well in aliquots of 195 μl medium, and they are allowed to attach to the plate surface by growing in drug free medium for 18 hours. Afterward, samples are in aliquots of 5 pi in a ranging from 10 to 10-8 μg/ml dissolved in DMSO/EtOH (0.2% in PS buffer). After 48 hours exposure, the antitumour effect are measured by the SRB methodology: cells are fixed by adding 50 μl of cold 50% (w/v) trichloroacetic acid (TCA) and incubating for 60 minutes at 4° C. Plates are washed with deionized water and dried. 100 μl of SRB solution (0.4% w/v in 1% acetic acid) is added to each microtiter well and incubated for 10 minutes at room temperature. Unbound SRB is removed by washing with 1% acetic acid. Plates are air-dried and bound stain is solubilized with Tris buffer. Optical densities are read on an automated spectrophotometric plate reader at a single wavelength of 490 nm.
(§4) The values for mean +/− SD of data from triplicate wells are calculated Some parameters for cellular responses can be calculated: […], TGI=total growth inhibition (cytostatic effect) and LC=cell killing (cytotoxic effect).

Series [2] has as its system HT-29. Put plainly: SRB cell growth/viability assay, HT-29.
Text: as §1, §2, §3, §4

Series [3] relates to MCF-7. Briefly: SRB cell growth/viability assay, MCF-7.
Text: as §1, §2, §3, §4

The subject of series [4] is SW-620. Briefly: SRB cell growth/viability assay, SW-620.
Text: as §1, §2, §3, §4

For series [5], the system named is DU-145. Briefly: SRB cell growth/viability assay, DU-145.
Text: as §1, §2, §3, §4

Series [6] deals with MEL-28. Briefly: SRB cell growth/viability assay, MEL-28.
Text: as §1, §2, §3, §4

Series [7] relates to A498. Put plainly: SRB cell growth/viability assay, A498.
Text: as §1, §2, §3, §4

Series [8] deals with MB-231. Briefly: SRB cell growth/viability assay, MB-231. The following applies: 48 h.
Text: as §1, §2, §3, §4

[9] abbreviates: Homo sapiens, A549, 48 h, read-out: A-549 GI50.
The mark [10] stands for this setting: Homo sapiens, A549, 48 h, read-out: A-549 LC50.
Where [11] appears, read: Homo sapiens, HT-29, 48 h, read-out: HT-29 GI50.
Where [12] appears, read: Homo sapiens, HT-29, 48 h, read-out: HT-29 LC50.

A word on the GI50: it is the concentration at which growth is held to half of that of the control. Turning to `COc1nccc(-c2c3cccnc3n3c(N)nccc23)n1` [Compound 27, methoxydeoxyvariolin], the 50% growth inhibitory concentration (GI50) in series [1] (setting [9]) is 68 nM; in series [2] (setting [11]), 170 nM. Moreover, the values for the CC50 in series [1] (setting [10]) and in series [2] (setting [12]) were 2700 nM and 34000 nM, respectively.

Turning to `CC(=O)N(C(C)=O)c1nccc(-c2c3cccnc3n3c(N)nccc23)n1` [Compound 23a, N′-bisacetyldeoxyvariolin], the GI50 was found to be 280 nM in series [1] (setting [9]) and 140 nM in series [2] (setting [11]). In addition, the CC50 in series [1] (setting [10]) and in series [2] (setting [12]) was 2800 nM each time.

For the compound `CC(=O)Nc1nccc2c(-c3ccnc(N(C(C)=O)C(C)=O)n3)c3cccnc3n12` [Compound 23b, N′-bisacetyl-N-acetyldeoxyvariolin], the GI50 in series [1] (setting [9]) amounted to 740 nM; in series [2] (setting [11]), 100 nM. Further, the CC50 in series [1] (setting [10]) was 7400 nM; in series [2] (setting [12]), 2500 nM.

With `Nc1nccc2c(-c3ccnc(NC(=O)C(F)(F)F)n3)c3cccnc3n12` [Compound 26, N′-trifluoroacetyldeoxyvariolin], the figures for the GI50 in series [1] (setting [9]) and in series [2] (setting [11]) were 270 nM and 800 nM, respectively. For the same compound, the CC50 in series [1] (setting [10]) stood at 27000 nM; in series [2] (setting [12]) it was 110000 nM.

With `CC(=O)Nc1nccc(-c2c3cccnc3n3c(N)nccc23)n1` [Compound 23d, N′-acetyldeoxyvariolin], the GI50 in series [1] (setting [9]) and in series [2] (setting [11]) was 630 nM throughout. In addition, the CC50 in series [1] (setting [10]) and in series [2] (setting [12]) was 3200 nM in each case.

As for `CS(=O)(=O)c1nccc(-c2c3cccnc3n3c(N)nccc23)n1` [Compound 6, sulfonyldeoxyvariolin], the GI50 is 4400 nM in series [1] (setting [9]) and 29000 nM in series [2] (setting [11]). Further, the CC50 in series [1] (setting [10]) and in series [2] (setting [12]) was above 150000 nM in each case.

Turning to `Nc1nccc2c(-c3ccnc(N4CCCCC4)n3)c3cccnc3n12` [Compound 28a, piperidinyldeoxyvariolin], the GI50 turned out to be 8700 nM in series [1] (setting [9]) and 5800 nM in series [2] (setting [11]). The CC50 in series [1] (setting [10]) and in series [2] (setting [12]) was above 29000 nM each time.

On to `CSc1nccc(-c2c3cccnc3n3c(SC)nccc23)n1` [Compound 19], for which the GI50 in series [1] (setting [9]) and in series [2] (setting [11]) was 5900 nM in each case. Further, the CC50 in series [1] (setting [10]) and in series [2] (setting [12]) was 29000 nM throughout.

In the case of `COc1ccc(CNc2nccc(-c3c4cccnc4n4c(NCc5ccc(OC)cc5)nccc34)n2)cc1` [Compound 29, N′,N-bis(p-methoxybenzyl)deoxyvariolin], the GI50 in series [1] (setting [9]) and in series [2] (setting [11]) was above 97000 nM in each case. Also, the CC50 in series [1] (setting [10]) and in series [2] (setting [12]) was above 97000 nM in each case.

With bis-sulfinyldeoxyvariolin [Compound 20], the CC50 in series [1] and in series [2] was above 130000 nM each time. In addition, the GI50 in series [1] (read-out: A-549 GI50, Table 2, A-549, 48 hours exposure, SRB) was 54000 nM; in series [2] (read-out: HT-29 GI50, Table 2, HT-29, 48 hours exposure, SRB) it was 110000 nM.

With `O=C(C=Cc1ccccc1)Nc1nccc2c(-c3ccnc(N(C(=O)/C=C/c4ccccc4)C(=O)/C=C/c4ccccc4)n3)c3cccnc3n12` [Compound 24b, N′-biscinnamoyl-N-cinnamoyldeoxyvariolin], the figures for the GI50 in series [1] (setting [9]) and in series [2] (setting [11]) were 3000 nM and 1500 nM, respectively. The CC50 in series [1] (setting [10]) and in series [2] (setting [12]) was 75000 nM in each case.

For `CC(=O)N(C(C)=O)c1nccc(-c2c3cccnc3n3c(N(C(C)=O)C(C)=O)nccc23)n1` [Compound 23c, N′-bisacetyl-N-bisacetyldeoxyvariolin], the 50% growth inhibitory concentration (GI50) turned out to be 2200 nM in series [1] (setting [9]) and 1100 nM in series [2] (setting [11]). Also, the CC50 in series [1] (setting [10]) came out at 22000 nM; in series [2] (setting [12]), 18000 nM.

In the case of `CCCCN(C)c1nccc(-c2c3cccnc3n3c(N)nccc23)n1` [Compound 28c, N′-butylmethyldeoxyvariolin], the GI50 in series [1] (setting [9]) and in series [2] (setting [11]) was 2900 nM each time. Further, the CC50 in series [1] (setting [10]) and in series [2] (setting [12]) was 23000 nM in each case.

On to `Nc1nccc2c(-c3ccnc(N(C(=O)/C=C/c4ccccc4)C(=O)/C=C/c4ccccc4)n3)c3cccnc3n12` [Compound 24a, N′-biscinnamoyldeoxyvariolin], for which the GI50 in series [1] (setting [9]) worked out at 120 nM; in series [2] (setting [11]) it was 4900 nM. Moreover, the results for the CC50 in series [1] (setting [10]) and in series [2] (setting [12]) were 12000 nM and above 120000 nM, respectively.

On to `CCNc1nccc(-c2c3cccnc3n3c(N)nccc23)n1` [Compound 28b, N′-ethyldeoxyvariolin], for which the GI50 in series [1] (setting [9]) and in series [2] (setting [11]) was above 33000 nM throughout. Besides, the CC50 in series [1] (setting [10]) and in series [2] (setting [12]) was above 33000 nM each time.

For `Nc1nccc(-c2c3c(O)ccnc3n3c(N)nccc23)n1` [Compound 1, Variolin B], the “TGI (total growth inhibition, cytostatic effect)” value in series [3] (48 h) is given as 2.E−06 M; in series [4] (48 h), 3.E−07 M; in series [5] (48 h), 3.E−07 M; in series [6] (48 h), 1.E−06 M; in series [1] (48 h), 1.E−06 M; in series [2] (48 h), 1.E−06 M. The “TGI (total growth inhibition, cytostatic effect)” value in series [7] (48 h) amounted to 3.E−07 M; in series [8], 1.E−06 M. Further, the GI50 in series [3] (Homo sapiens, MCF7, 48 h, read-out: GI50 (50% growth inhibition)) turned out to be 700 nM; in series [4] (Homo sapiens, SW-620, 48 h, read-out: GI50 (50% growth inhibition)), 100 nM; in series [5] (Homo sapiens, DU-145, 48 h, read-out: GI50 (50% growth inhibition)), 100 nM; in series [6] (Homo sapiens, SK-MEL-28, 48 h, read-out: GI50 (50% growth inhibition)), 700 nM; in series [1] (setting [9]) it was 170 nM; in series [1] (Homo sapiens, A549, 48 h, read-out: GI50 (50% growth inhibition)), 700 nM. Moreover, the GI50 in series [2] (Homo sapiens, HT-29, 48 h, read-out: GI50 (50% growth inhibition)) was determined as 700 nM; in series [2] (setting [11]), 1000 nM; in series [7] (Homo sapiens, A498, 48 h, read-out: GI50 (50% growth inhibition)), 100 nM; in series [8] (Homo sapiens, read-out: GI50 (50% growth inhibition)), 300 nM. The CC50 in series [3] (Homo sapiens, MCF7, 48 h, read-out: LC50 (50% net cell killing, cytotoxic effect)) was determined as 2000 nM; in series [4] (Homo sapiens, SW-620, 48 h, read-out: LC50 (50% net cell killing, cytotoxic effect)) it was 2000 nM; in series [5] (Homo sapiens, DU-145, 48 h, read-out: LC50 (50% net cell killing, cytotoxic effect)), 1000 nM; in series [6] (Homo sapiens, SK-MEL-28, 48 h, read-out: LC50 (50% net cell killing, cytotoxic effect)), 2000 nM; in series [1] (setting [10]), 170000 nM; in series [1] (Homo sapiens, A549, 48 h, read-out: LC50 (50% net cell killing, cytotoxic effect)), 3000 nM. In addition, the CC50 in series [2] (setting [12]) is above 170000 nM; in series [2] (Homo sapiens, HT-29, 48 h, read-out: LC50 (50% net cell killing, cytotoxic effect)), 3000 nM; in series [7] (Homo sapiens, A498, 48 h, read-out: LC50 (50% net cell killing, cytotoxic effect)), 2000 nM; in series [8] (Homo sapiens, read-out: LC50 (50% net cell killing, cytotoxic effect)), 3000 nM. Further, in series [1] (Table 2, A-549, 48 hours exposure, SRB), the “A-549 TGI” value is 6.8 10^−7 M. In addition, in series [2] (Table 2, HT-29, 48 hours exposure, SRB), the “HT-29 TGI” value is listed as 1.7 10^−5 M.

`CC(=O)Nc1nccc(-c2c3cccnc3n3c(NC(C)=O)nccc23)n1` [Compound 23e, N′-acetyl-N-acetyldeoxyvariolin]: the GI50 in series [1] (setting [9]) came to 2200 nM; in series [2] (setting [11]), 5500 nM. The CC50 in series [1] (setting [10]) is 28000 nM; in series [2] (setting [12]) it was above 28000 nM.

As for `C[S+]([O-])c1nccc(-c2c3cccnc3n3c(N)nccc23)n1` (stereo not drawn) [Compound 22, sulfinyldeoxyvariolin], the GI50 in series [1] (setting [9]) is 1200 nM; in series [2] (setting [11]), 920 nM. Further, the CC50 was 92000 nM in series [1] (setting [10]) and above 150000 nM in series [2] (setting [12]).

With `Nc1nccc2c(-c3ccnc(NCc4ccccc4)n3)c3cccnc3n12` [Compound 28d, N′-benzyldeoxyvariolin], the concentration for 50% growth inhibition (GI50) in series [1] (setting [9]) and in series [2] (setting [11]) was 1400 nM each time. The CC50 in series [1] (setting [10]) came to 27000 nM; in series [2] (setting [12]), 22000 nM.
